Measurements: publication PMC7167990, “Therapeutic Effects of Atranorin towards the Proliferation of Babesia and Theileria Parasites” (Pathogens, 2020)

Key:
[1] = tested on: B. bigemina; experiment: Parasite viability test in vitro (regrowth after drug withdrawal, microscopy); type: cell-based; set-up: key: a positive (+) indicates parasites regrowth; a negative (–) shows the parasites total clearance after drug pressure withdrawal using microscopy assay; settings: 4 days treatment, then drug-free culture
Method: (§1) The viability studies of ATR-treated parasites were monitored via microscopy as reported elsewhere. In a 96-well microtiter plate, an aliquot of 1% parasitemia (10 µL) of iRBCs was cultivated with 90 µL of respective media containing various concentrations of ATR and DA for 4 successive days with changing media daily. […] On the fifth day, a mixture of iRBCs (3 µL) from each well and fresh equine or bovine RBCs (7 µL) was transferred to another plate, cultured in a medium free from drug and then left for an additional six days. The total parasite clearance was recorded as negative, while the relapse of parasites was recorded as positive.

[2] = tested on: B. bovis; experiment: as above; type: cell-based; set-up: key: a positive (+) indicates parasites regrowth; a negative (–) shows the parasites total clearance after drug pressure withdrawal using microscopy assay; settings: 4 days treatment, then drug-free culture
Method: as §1

[3] = tested on: B. caballi; experiment: as above; type: cell-based; set-up: key: a positive (+) indicates parasites regrowth; a negative (–) shows the parasites total clearance after drug pressure withdrawal using microscopy assay; settings: 4 days treatment, then drug-free culture
Method: as §1

[4] = tested on: B. divergens; experiment: as above; type: cell-based; set-up: key: a positive (+) indicates parasites regrowth; a negative (–) shows the parasites total clearance after drug pressure withdrawal using microscopy assay; settings: 4 days treatment, then drug-free culture
Method: as §1

[5] = tested on: T. equi; experiment: as above; type: cell-based; set-up: key: a positive (+) indicates parasites regrowth; a negative (–) shows the parasites total clearance after drug pressure withdrawal using microscopy assay; settings: 4 days treatment, then drug-free culture
Method: as §1

[6] = Hematology parameters (HGB, HCT, RBCs) in B. microti-infected treated mice; type: in vivo, BALB/c mice; set-up: HGB Mean: unit not given beside the values; RBCs Mean: unit not given here; settings: DA 25, AV 20, ATR 25, ATR 12.5+DA 12.5, ATR 12.5+AV 10 mg/kg BW, days 4-8 p.i.
[7] = tested on: bovine RBCs (B. divergens); experiment: Impact of ATR pretreatment of bovine RBCs on later parasite proliferation; type: cell-based; settings: 400 µM ATR for 3 and 6 h, then B. divergens subculture
Method: (§2) Prior to parasite subculture, a concentration of 400 µM of ATR was mixed with fresh bovine and equine RBCs and incubated at a humidified incubator for 3 and 6 h. Afterward, the pretreated-RBCs were mixed with B. divergens and T. equi infected RBCs (iRBCs) after washing thrice with PBS to achieve 1% parasitemia. Thereafter, using a 24-well plate, an aliquot of iRBCs (100 μL) was mixed with culture media (900 μL); the control RBCs were left untreated. To monitor the parasitemia and any side effects due to the pretreatment, Giemsa-stained smears were prepared every 24 h for four days.

[8] = tested on: equine RBCs (T. equi); experiment: Impact of ATR pretreatment of equine RBCs on later parasite proliferation; type: cell-based; settings: 400 µM ATR for 3 and 6 h, then T. equi subculture
Method: as §2

[9] = tested on: hepatitis C virus (HCV); set-up: method as in PMID 25793970; settings: antiviral activity against hepatitis C virus (HCV); cited from earlier work
[10] = tested on: Plasmodium species; set-up: method as in earlier work; settings: ATR combined with quinine; cited from earlier work
[11] = tested on: LLC/MK2 monkey kidney epithelial cells; set-up: method as in PMID 21487780; settings: cited from earlier work

COC(=O)c1c(C)cc(OC(=O)c2c(C)cc(O)c(C=O)c2O)c(C)c1O [ATR, Atranorin]
Viability ([1]; A1 = 0.25× IC50, 16.1 µM): +
Viability ([1]; A2 = 0.5× IC50, 32.25 µM): +
Viability ([1]; A3 = 1× IC50, 64.5 µM): +
Viability ([1]; A4 = 2× IC50, 129 µM): completely suppressed and did not revive and –
Viability ([1]; A5 = 4× IC50, 258 µM): –
Viability ([1]; A6 = 6× IC50, 387 µM): –
Viability ([2]; A1 = 0.25× IC50, 24.6 µM): +
Viability ([2]; A2 = 0.5× IC50, 49.2 µM): +
Viability ([2]; A3 = 1× IC50, 98.4 µM): +
Viability ([2]; A4 = 2× IC50, 196.8 µM): completely suppressed and did not revive and –
Viability ([2]; A5 = 4× IC50, 393.6 µM): –
Viability ([2]; A6 = 6× IC50, 590.4 µM): –
Viability ([3]; A1 = 0.25× IC50, 11.65 µM): +
Viability ([3]; A2 = 0.5× IC50, 23.3 µM): +
Viability ([3]; A3 = 1× IC50, 46.6 µM): +
Viability ([3]; A4 = 2× IC50, 93.2 µM): completely suppressed and did not revive and –
Viability ([3]; A5 = 4× IC50, 186.4 µM): –
Viability ([3]; A6 = 6× IC50, 279.6 µM): –
Viability ([4]; A1 = 0.25× IC50, 11.3 µM): +
Viability ([4]; A2 = 0.5× IC50, 22.6 µM): +
Viability ([4]; A3 = 1× IC50, 45.2 µM): +
Viability ([4]; A4 = 2× IC50, 90.4 µM): +
Viability ([4]; A5 = 4× IC50, 180.8 µM): cleared and did not revive and –
Viability ([4]; A6 = 6× IC50, 271.2 µM): –
Viability ([5]; A1 = 0.25× IC50, 17.8 µM): +
Viability ([5]; A2 = 0.5× IC50, 35.6 µM): +
Viability ([5]; A3 = 1× IC50, 71.3 µM): +
Viability ([5]; A4 = 2× IC50, 142.6 µM): +
Viability ([5]; A5 = 4× IC50, 285.2 µM): +
Viability ([5]; A6 = 6× IC50, 427.8 µM): suppressed and –
HCT Mean ([6]; day 0): 46.575%
HGB Mean ([6]; day 0): 14.8
RBCs Mean ([6]; day 0): 942.625
HCT Mean ([6]; day 4): 44.4%
HGB Mean ([6]; day 4): 13.64
RBCs Mean ([6]; day 4): 928
HCT Mean ([6]; day 8): 38%
HGB Mean ([6]; day 8): 10
RBCs Mean ([6]; day 8): 610
HCT Mean ([6]; day 12): 28.925%
HGB Mean ([6]; day 12): 10.05
RBCs Mean ([6]; day 12): 557
HCT Mean ([6]; day 16): 36.65%
HGB Mean ([6]; day 16): 11.425
RBCs Mean ([6]; day 16): 637.75
HCT Mean ([6]; day 20): 39.5%
HGB Mean ([6]; day 20): 11.95
RBCs Mean ([6]; day 20): 679.75
HCT Mean ([6]; day 24): 40.2%
HGB Mean ([6]; day 24): 12.725
RBCs Mean ([6]; day 24): 830
HCT Mean ([6]; day 28): 43.2%
HGB Mean ([6]; day 28): 13.2
RBCs Mean ([6]; day 28): 898
HCT Mean ([6]; day 32): 45.2%
HGB Mean ([6]; day 32): 14.8
RBCs Mean ([6]; day 32): 942.625
HCT Mean ([6]; day 36): 47.2%
HGB Mean ([6]; day 36): 14.99
RBCs Mean ([6]; day 36): 982.625
parasite proliferation in ATR-pretreated RBCs versus untreated RBCs [7]: did not show a significant difference
parasite proliferation in ATR-pretreated RBCs versus untreated RBCs [8]: did not show a significant difference
IC50 [9]: 22.3 ± 8 µM
combined treatment efficacy with quinine [10]: slight antagonistic efficacy
cytotoxic action [11]: mild cytotoxic action

CC(=O)NCC(=O)O.CC(=O)NCC(=O)O.N=C(N)c1ccc(N=NNc2ccc(C(=N)N)cc2)cc1 [DA, diminazene aceturate]
HCT Mean ([6]; day 0): 46.48%
HGB Mean ([6]; day 0): 15.64
RBCs Mean ([6]; day 0): 990.625
HCT Mean ([6]; day 4): 46.18%
HGB Mean ([6]; day 4): 13.64
RBCs Mean ([6]; day 4): 954.75
HCT Mean ([6]; day 8): 46.18%
HGB Mean ([6]; day 8): 14.72
RBCs Mean ([6]; day 8): 888.25
HCT Mean ([6]; day 12): 44.1%
HGB Mean ([6]; day 12): 13.6
RBCs Mean ([6]; day 12): 860
HCT Mean ([6]; day 16): 45.52%
HGB Mean ([6]; day 16): 14.46
RBCs Mean ([6]; day 16): 870.25
HCT Mean ([6]; day 20): 44.14%
HGB Mean ([6]; day 20): 15.02
RBCs Mean ([6]; day 20): 880
HCT Mean ([6]; day 24): 46%
HGB Mean ([6]; day 24): 15.2
RBCs Mean ([6]; day 24): 888
HCT Mean ([6]; day 28): 47%
HGB Mean ([6]; day 28): 15.64
RBCs Mean ([6]; day 28): 984.75
HCT Mean ([6]; day 32): 49%
HGB Mean ([6]; day 32): 15.94
RBCs Mean ([6]; day 32): 990.625
HCT Mean ([6]; day 36): 49%
HGB Mean ([6]; day 36): 16.64
RBCs Mean ([6]; day 36): 997.625

O=C1C(O)=C([C@H]2CC[C@H](c3ccc(Cl)cc3)CC2)C(=O)c2ccccc21 [AV, atovaquone]
HCT Mean ([6]; day 0): 47.48%
HGB Mean ([6]; day 0): 14.44
RBCs Mean ([6]; day 0): 1060.62
HCT Mean ([6]; day 4): 45%
HGB Mean ([6]; day 4): 13.64
RBCs Mean ([6]; day 4): 984.75
HCT Mean ([6]; day 8): 44%
HGB Mean ([6]; day 8): 14.34
RBCs Mean ([6]; day 8): 878
HCT Mean ([6]; day 12): 40%
HGB Mean ([6]; day 12): 12.6
RBCs Mean ([6]; day 12): 850
HCT Mean ([6]; day 16): 43%
HGB Mean ([6]; day 16): 13.96
RBCs Mean ([6]; day 16): 830.25
HCT Mean ([6]; day 20): 45%
HGB Mean ([6]; day 20): 14.92
RBCs Mean ([6]; day 20): 844
HCT Mean ([6]; day 24): 46%
HGB Mean ([6]; day 24): 15.4
RBCs Mean ([6]; day 24): 850
HCT Mean ([6]; day 28): 48%
HGB Mean ([6]; day 28): 15.64
RBCs Mean ([6]; day 28): 984.75
HCT Mean ([6]; day 32): 50%
HGB Mean ([6]; day 32): 16
RBCs Mean ([6]; day 32): 1000.62
HCT Mean ([6]; day 36): 51%
HGB Mean ([6]; day 36): 16.44
RBCs Mean ([6]; day 36): 1060.62
